According to paper PMC4185360 (Emerging Microbes & Infections, 2014):
Several values for one entry are separate records, joined by “and”; a condition that tells them apart may be missing. Identical values can stand only once. Counter-ions that a name gives are not always drawn. Like-named read-outs stand apart in the source and are kept apart here.

How the values were obtained:
EV71 [1] = experiment: Antiviral potency assay, viral load by qRT-PCR in RD cells; assay type: cell-based; settings: for IC90: read-out: IC90, EV71 replication (viral load by qRT-PCR)
coxsackievirus A16 = assay type: cell-based, Coxsackie virus A16 (strain shzh05-1); settings: 50 µM
poliovirus-1 (Sabin) = assay type: cell-based; settings: TCID50 reduction assay
EV71 [2] = experiment: Time-of-addition assay, single round viral replication in RD cells; assay type: cell-based; settings: 10 µM
Protocol: Single round viral replication is get by infecting RD cell at multiplicity of infection of 5, collecting at 16 h post infection, and testing culture supernatant and intracellular RNA at 16 h post infection.
(A) Time of addition assay. The viral load in supernatant represents the means±s.e.m. of results of experiment with three replicates, and the intracellular viral load represents the result of a single test. […] Data represents the means±s.e.m. of results of experiment with three replications.

EV71 [3] = experiment: Viral attachment assay (cell-virus adsorption at 4°C); assay type: cell-based; settings: Enterovirus A, incubated with cells and virus at 4°C, read-out: IC90, virus binding to the cell
EV71 particles = experiment: STD NMR assay of binding to EV71 particles; settings: inactivated, purified EV71; molar ratio 1:100
[4] = cited from earlier work
[5] = source not given; cited from earlier work
CYP1A2 = target: T1, CYP1A2 (Homo sapiens, UniProt P05177); experiment: in vitro; settings: microsomes
T1 sequence (P05177 1-516): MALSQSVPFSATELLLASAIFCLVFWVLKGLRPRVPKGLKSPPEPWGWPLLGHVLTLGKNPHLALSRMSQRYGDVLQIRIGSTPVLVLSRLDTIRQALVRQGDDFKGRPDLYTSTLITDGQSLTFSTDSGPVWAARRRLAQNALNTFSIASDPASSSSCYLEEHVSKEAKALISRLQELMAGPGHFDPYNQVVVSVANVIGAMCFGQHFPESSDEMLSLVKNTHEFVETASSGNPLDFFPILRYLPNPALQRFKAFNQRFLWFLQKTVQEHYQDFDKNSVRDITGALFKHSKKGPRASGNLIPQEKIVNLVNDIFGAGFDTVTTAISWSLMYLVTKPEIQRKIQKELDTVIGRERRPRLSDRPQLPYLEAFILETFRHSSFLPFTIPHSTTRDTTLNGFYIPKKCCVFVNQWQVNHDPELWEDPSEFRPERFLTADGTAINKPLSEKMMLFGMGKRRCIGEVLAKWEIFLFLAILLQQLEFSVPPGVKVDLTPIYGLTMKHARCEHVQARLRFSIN

CYP2C9 [6] = target: T2, CYP2C9 (Homo sapiens, UniProt P11712); experiment: in vitro; settings: microsomes
T2 sequence (P11712 whole entry): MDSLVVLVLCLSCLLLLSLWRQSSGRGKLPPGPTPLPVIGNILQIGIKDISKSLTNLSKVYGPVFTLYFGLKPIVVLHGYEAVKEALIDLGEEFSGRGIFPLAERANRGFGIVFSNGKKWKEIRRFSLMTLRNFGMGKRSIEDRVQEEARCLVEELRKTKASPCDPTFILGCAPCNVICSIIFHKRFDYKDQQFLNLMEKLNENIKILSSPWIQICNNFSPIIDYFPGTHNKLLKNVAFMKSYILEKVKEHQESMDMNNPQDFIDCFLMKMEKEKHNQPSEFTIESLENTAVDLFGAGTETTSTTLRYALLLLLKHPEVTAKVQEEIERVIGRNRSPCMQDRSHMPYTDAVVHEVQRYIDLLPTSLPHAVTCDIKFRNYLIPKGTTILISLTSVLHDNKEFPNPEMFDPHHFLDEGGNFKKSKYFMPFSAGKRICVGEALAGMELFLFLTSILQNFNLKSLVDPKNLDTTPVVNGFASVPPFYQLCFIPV

CYP2D6 [7] = target: T3, CYP2D6 (Homo sapiens, UniProt P10635); experiment: in vitro; settings: human microsomes, probe marker substrate cocktail, O-demethylation (CYP2D6)
T3 sequence (P10635 whole entry): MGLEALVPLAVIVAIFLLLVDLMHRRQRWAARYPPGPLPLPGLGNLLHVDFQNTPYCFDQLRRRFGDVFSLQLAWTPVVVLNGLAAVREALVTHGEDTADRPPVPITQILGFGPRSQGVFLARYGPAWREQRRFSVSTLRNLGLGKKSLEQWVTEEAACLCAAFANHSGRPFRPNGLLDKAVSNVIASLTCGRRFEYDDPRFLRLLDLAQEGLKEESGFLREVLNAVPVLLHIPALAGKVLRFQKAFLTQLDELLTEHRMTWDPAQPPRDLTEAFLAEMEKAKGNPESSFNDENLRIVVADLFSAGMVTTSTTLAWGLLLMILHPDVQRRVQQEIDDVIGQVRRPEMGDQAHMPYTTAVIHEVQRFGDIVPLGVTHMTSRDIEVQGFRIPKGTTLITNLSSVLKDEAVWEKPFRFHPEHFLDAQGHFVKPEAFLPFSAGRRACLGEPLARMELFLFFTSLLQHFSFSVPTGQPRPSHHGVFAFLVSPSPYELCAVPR

CYP3A4 = CYP3A4 (Homo sapiens, UniProt P08684); experiment: in vitro; settings: human microsomes, probe marker substrate cocktail, 1′-hydroxylation (CYP3A4)
Sequence of CYP3A4 (P08684 whole entry): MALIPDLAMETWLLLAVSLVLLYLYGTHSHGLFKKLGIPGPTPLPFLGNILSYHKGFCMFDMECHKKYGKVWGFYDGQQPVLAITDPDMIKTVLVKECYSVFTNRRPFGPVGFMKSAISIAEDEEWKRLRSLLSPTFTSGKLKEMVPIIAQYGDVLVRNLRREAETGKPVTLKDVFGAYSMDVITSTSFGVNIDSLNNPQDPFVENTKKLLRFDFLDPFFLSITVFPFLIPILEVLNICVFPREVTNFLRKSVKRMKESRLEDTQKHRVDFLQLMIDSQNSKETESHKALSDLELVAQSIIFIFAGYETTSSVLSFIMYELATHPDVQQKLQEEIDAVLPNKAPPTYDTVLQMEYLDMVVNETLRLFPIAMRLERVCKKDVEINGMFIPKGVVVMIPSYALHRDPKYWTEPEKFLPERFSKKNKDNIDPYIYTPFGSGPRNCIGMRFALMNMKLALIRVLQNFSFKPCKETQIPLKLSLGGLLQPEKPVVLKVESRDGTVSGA

CYP2C9 [8] = target: T2, CYP2C9; experiment: biochemical
CYP2D6 [9] = target: T3, CYP2D6; experiment: biochemical
[10] = Cynomolgus monkey plasma pharmacokinetics; settings: male, iv, 4.37 mg/kg; for AUC(0-inf): AUC0-inf; for AUC(0-t): AUC0-last; for clearance: Cl; for Vd: Vdss
[11] = system: mouse-adapted EV71 strain MP10; experiment: In vivo anti-EV71 efficacy in 10-day-old ICR mice; settings: lethal dose EV71 MP10
EV71 FY-23 = experiment: In vivo anti-EV71 efficacy in adult rhesus monkeys; settings: 50 mg/kg i.v. four times, between days 6 and 9 post-infection
[12] = Enterovirus A, EV71 isolate Fuyang573, RD cells
[13] = mean of 3 monkeys, 4.37 mg/kg i.v. bolus
[14] = monkey P101, 4.37 mg/kg i.v. bolus
[15] = monkey P102, 4.37 mg/kg i.v. bolus
[16] = monkey P103, 4.37 mg/kg i.v. bolus

O=S(=O)(O)c1cc(N=C=S)ccc1/C=C/c1ccc(N=C=S)cc1S(=O)(=O)O [DIDS, 4,4′-diisothiocyanatostilbene-2,2′-disulfonic acid disodium salt]
IC90 (EV71 [1]; Enterovirus A, EV71, RD): 10.3 µM

O=C(Nc1cc(C(=O)Nc2ccc(S(=O)(=O)O)cc2S(=O)(=O)O)cc(C(=O)Nc2ccc(S(=O)(=O)O)cc2S(=O)(=O)O)c1)Nc1cc(C(=O)Nc2ccc(S(=O)(=O)O)cc2S(=O)(=O)O)cc(C(=O)Nc2ccc(S(=O)(=O)O)cc2S(=O)(=O)O)c1 [NF 449, 4,4′,4″,4″′-[carbonylbis(imino-5,1,3-benzenetriyl-bis(carbonylimino))]tetrakis-1,3-benzenedisulfonic acid, octasodium salt]
IC90 (EV71 [1]; [12]): 0.9 µM

O=C(Nc1cccc(C(=O)Nc2ccc(S(=O)(=O)O)c3cc(S(=O)(=O)O)cc(S(=O)(=O)O)c23)c1)Nc1cccc(C(=O)Nc2ccc(S(=O)(=O)O)c3cc(S(=O)(=O)O)cc(S(=O)(=O)O)c23)c1 [NF 023, 8,8′-[carbonylbis(imino-3,1-phenylenecarbonylimino)]bis-1,3,5-naphthalene-trisulphonic acid, hexasodium salt]
IC90 (EV71 [1]; [12]): 8.9 µM

heparin sodium salt
IC90, EV71 replication (EV71 [1]): 24.3 µg/mL

Cc1ccc(C(=O)Nc2ccc(S(=O)(=O)O)c3cc(S(=O)(=O)O)cc(S(=O)(=O)O)c23)cc1NC(=O)c1cccc(NC(=O)Nc2cccc(C(=O)Nc3cc(C(=O)Nc4ccc(S(=O)(=O)O)c5cc(S(=O)(=O)O)cc(S(=O)(=O)O)c45)ccc3C)c2)c1 [suramin, Suramin sodium salt]
reduction of coxsackievirus A16 replication (coxsackievirus A16): 10^6 TCID50/mL | inhibition of poliovirus-1 (Sabin) (poliovirus-1 (Sabin)): not inhibited | effect on viral replication (EV71 [2]; added after adsorption): no effect | decrease of viral replication (EV71 [2]; added at the virus-cell adsorption stage): > 1 log10 | IC90 (EV71 [3]): 6.17 µM | STD NMR signals with EV71 particles (EV71 particles): strong STD NMR signals | half-life [4]: long | serum protein binding [5]: high levels | inhibition at 10 min, 10 µM (CYP1A2): 40% | inhibition at 10 min, 30 µM (CYP1A2): 70% | inhibition at 10 min, 100 µM (CYP1A2): 89% | inhibition at 10 min, 10 µM (CYP2C9 [6]): 0% | inhibition at 10 min, 30 µM (CYP2C9 [6]): 8% | inhibition at 10 min, 100 µM (CYP2C9 [6]): 32% | inhibition at 10 min, 10 µM (CYP2D6 [7]): 7% | inhibition at 10 min, 30 µM (CYP2D6 [7]): 40% | inhibition at 10 min, 100 µM (CYP2D6 [7]): 49% | inhibition at 10 min, 10 µM (CYP3A4): 5% | inhibition at 10 min, 30 µM (CYP3A4): 16% | inhibition at 10 min, 100 µM (CYP3A4): 34% | IC50 (CYP2C9 [8]): > 100 µM | IC50 (CYP2D6 [9]): > 100 µM (2×) and 45.5 µM | AUC(0-inf) [10, 13]: 2330 µg·h/mL | AUC(0-inf) [10, 14]: 1960 µg·h/mL | AUC(0-inf) [10, 15]: 2400 µg·h/mL | AUC(0-inf) [10, 16]: 2620 µg·h/mL | AUC(0-t) [10, 13]: 1800 µg·h/mL | AUC(0-t) [10, 14]: 1660 µg·h/mL | AUC(0-t) [10, 15]: 1810 µg·h/mL | AUC(0-t) [10, 16]: 1930 µg·h/mL | C0 ([10]; C0, mean of 3 monkeys, 4.37 mg/kg i.v. bolus): 128 µg/mL | C0 ([10]; C0, monkey P101, 4.37 mg/kg i.v. bolus): 143 µg/mL | C0 ([10]; C0, monkey P102, 4.37 mg/kg i.v. bolus): 96.3 µg/mL | C0 ([10]; C0, monkey P103, 4.37 mg/kg i.v. bolus): 146 µg/mL | clearance [10, 13]: 1.9 mL/h/kg | clearance [10, 14]: 2.23 mL/h/kg | clearance [10, 15]: 1.82 mL/h/kg | clearance [10, 16]: 1.67 mL/h/kg | Cmax [10, 13]: 142 µg/mL | Cmax [10, 14]: 169 µg/mL | Cmax [10, 15]: 117 µg/mL | Cmax [10, 16]: 141 µg/mL | half-life ([10]; T1/2, mean of 3 monkeys, 4.37 mg/kg i.v. bolus): 104 h | half-life ([10]; T1/2, monkey P101, 4.37 mg/kg i.v. bolus): 69.1 h | half-life ([10]; T1/2, monkey P102, 4.37 mg/kg i.v. bolus): 112 h | half-life ([10]; T1/2, monkey P103, 4.37 mg/kg i.v. bolus): 130 h | Tmax [10, 13]: 3.6 min | Tmax [10, 14]: 4.8 min | Tmax [10, 15]: 4.8 min | Tmax [10, 16]: 1.8 min | Vd [10, 13]: 0.199 L/kg | Vd [10, 14]: 0.176 L/kg | Vd [10, 15]: 0.212 L/kg | Vd [10, 16]: 0.21 L/kg | survival rate ([11]; 50 mg/kg i.p. twice daily for 7 days): 30% | decrease of mortality ([11]; mice): 30% | viral genomic RNA in serum (EV71 FY-23): < 20 copies of viral genomic RNA/mL

Cc1nc(/N=N/c2cc(S(=O)(=O)O)ccc2S(=O)(=O)O)c(COP(=O)(O)O)c(C=O)c1O [iso-PPADS, pyridoxalphosphate-6-azophenyl-2′,5′-disulfonic acid tetrasodium salt]
IC90 (EV71 [1]; [12]): 6.4 µM

Sucralfate sodium
IC90 (EV71 [1]; EV71 isolate Fuyang573, RD cells): 3.3 µM

Cc1nc(/N=N/c2ccc(S(=O)(=O)O)cc2S(=O)(=O)O)c(COP(=O)(O)O)c(C=O)c1O [PPADS, pyridoxal phosphate-6-azo (benzene-2,4-disulfonic acid) tetrasodium salt hydrate]
IC90 (EV71 [1]; [12]): 7 µM
